Test results: patent US12600725B2 (Memorial Sloan-Kettering Cancer Center, priority 2013, dated 2026)
Entries after “also recorded” stand apart in the source; their conditions may differ.

Assays:
[1] = tested on: Toll-like receptor 9 (TLR9) trafficking in HEK293 cells transfected with HA-TLR9; assay: TLR9-trafficking assay; format: cell-based, human; details: 24 h treatment
Experimental: TLR^9-trafficking assay (Yang, Y. et al. Heat shock protein gp96 is a master chaperone for toll-like receptors and is important in the innate function of macrophages. Immunity 26, 215-26 (2007)). HEK 293T cells were transfected with pUNO-hTLR9-HA (Invivogen) using X-tremgene HP (Roche) according to the manufacturer's instructions. At 24 hrs post-transfection, cells were split onto cell culture chamber slides (Lab-Tek). Cells were then treated for 24 hrs with indicated compound at varying concentrations. After treatment, cells were fixed for 20 min in 4% paraformaldehyde in PBS, permeabilized with 0.1% Triton-X 100 in PBS for 10 min, blocked with 3% BSA in PBS for 30 min, followed by staining for 1 hr with an anti-HA antibody (Abcam, ab9110) or a normal rabbit IgG. Cells were washed with PBS, stained with an anti-rabbit-Cy3 antibody (Invitrogen) and finally mounted in the dark at 4° C. with Prolong Gold Antifade reagent (with DAPI). Cells were visualized under a confocal microscope (Leica Upright Confocal SP5). Fluorescence intensity was quantified using MetaMorph Microscopy Automation and Image Analysis Software (Molecular Devices Inc.) and normalized to the cell number.

[2] = tested on: TLR9 ligand CpG DNA induced TNF-α production in RAW 264.7 macrophages; assay: TNFα ELISA, CpG DNA stimulated macrophages; format: cell-based, mouse
[3] = tested on: IGF1R and TGFbeta expressing ovarian cancer cell lines; assay: Apoptosis in ovarian cancer cell lines; format: cell-based
Experimental: (§1) Cell cycle and apoptosis assessment. Cell cycle and apoptosis were assessed by flow cytometry after single staining with propidium iodide (PI, BD Pharmingen) or double staining with AnnexinV-FITC (BD Pharmingen) and 7AAD (BD Pharmingen), respectively. Specifically, for cell cycle analysis, cells were washed twice with cold PBS and fixed in 70% ethanol overnight at 4° C. Fixed cells were collected at 1800 rpm for 10 min and stained with PBS containing PI and DNase-free RNase A (Sigma-Aldrich) for 1 h at room temperature in the dark. DNA content was measured by BD LSRII flow cytometer and cell further analyzed using program of cell cycle analysis in FloJo (Ashland, OR). The chicken erythrocyte nuclei singlets (CEN, Biosure) were used as the reference. For apoptosis assessment, live cells were collected, washed twice with cold PBS, resuspended in Binding Buffer and stained with AnnexinV-FITC and 7AAD for 15 min at room temperature in the dark. Signals from FL1 and FL3 channels were collected by MACSQuant analyzer and further analyzed using FloJo. Early apoptosis was defined as AnnexinV+/7AAD−, and late apoptosis was observed as AnnexinV+/7AAD+.

[4] = tested on: IGF-II secretion by differentiated C2C12 cells; assay: C2C12 differentiation and IGF-II secretion assay; format: cell-based, mouse; details: 24 hrs treatment
Source text: C2C12 differentiation and IGF-II secretion assay (Wanderling, S. et al. GRP94 is essential for mesoderm induction and muscle development because it regulates insulin-like growth factor secretion. Mol. Biol. Cell 18, 3764-75 (2007); Ostrovsky, O., Ahmed, N.T. & Argon, Y. The chaperone activity of GRP94 toward insulin-like growth factor II is necessary for the stress response to serum deprivation. Mol. Biol. Cell 20, 1855-64 (2009)). C2C12 cells were maintained and cultured in DMEM in the presence of 10% FBS and 1% penicillin/streptomycin (Culture medium). C2C12 is an immortal line of mouse skeletal myoblasts originally derived from satellite cells from the thigh muscle of a two month old female mouse donor. These cells differentiate well into myocytes under appropriate culture conditions. […] Secreted IGF-II was quantified by using IGF-II mouse ELISA kit (Abcam, AB100696) according to the manufacturer's instructions. […] The bound IGF-II was detected with a biotinylated anti-IGF-II antibody. After the sequential incubation with HRP conjugated streptavidin, TMB One-step substrate reagent and the Stop solution, the absorbance was measured at 450 nm. The secreted IGF-II was quantified against a standard curve generated with recombinant IGF-II provided by the kit.

[5] = tested on: 97 kinases; assay: Kinase screen (Discoverx scanEDGE / KINOMEscan); format: binding; details: tested at 10 uM
[6] = tested on: LRP6 in the normal GI; assay: PD analysis of normal GI tissues (Western blot); format: in vivo, mouse
[7] = tested on: HER2-overexpressing breast cancer cells; assay: Cell cycle, PARP cleavage, apoptosis and Hsp70 induction in HER2-overexpressing breast cancer cells; format: cell-based
[8] = tested on: A673 Ewing sarcoma cells; assay: Apoptosis assessment (Annexin V / 7AAD); format: cell-based
Experimental: (§2) The disclosure provides evidence that Grp94 inhibitors are efficacious in treating cancer with altered expression of the IGF1R and where the receptor is necessary for pathogenesis and tumor progression.
as §1

[9] = tested on: TC71 Ewing sarcoma cells; assay: Apoptosis assessment (Annexin V / 7AAD); format: cell-based
Experimental: as §2, §1

[10] = tested on: OE19 cells; assay: Cell viability assessment (CellTiter-Glo); format: cell-based

In the case of `CC(C)NCCCn1c(Sc2cc(Cl)cc(Cl)c2)nc2c(N)ncnc21` [PU-WS13], the TLR9 trafficking [1] was “inhibits TLR^9 trafficking”, the “CpG DNA induced TNF-α production” value [2] was “inhibited this response in a concentration dependent manner; also recorded: inhibit” and the induction of apoptosis [3] was “induces apoptosis”. The IGF-II secretion [4] was “inhibited IGF-II secretion”, the “effect on the tested 97 kinases” value [5] was “no significant effect” and the “LRP6 levels in normal GI” value ([6]; 75 mg/kg) was “could not detect a significant decrease in LRP6”. For the same molecule, the “LRP6 levels in normal GI” value ([6]; 150 mg/kg) was “no acute tox or change in LRP6 levels”, the “accumulation of cells in sub-G1 phase, time first observed post-treatment” value [7] was 1 to 2 h and the “cells exhibiting markers of early- and late-stage apoptosis” value [7] was “substantial increase”. For the same molecule, the “cleavage of PARP” value [7] was “cleavage of PARP”, the “feed-back heat shock response (Hsp70 induction)” value [7] was “little to no Hsp70 induction” and the induction of apoptosis [8] was “capable of inducing apoptosis”. The induction of apoptosis [9] was “capable of inducing apoptosis” and the “sensitivity to Grp94 inhibition” value [10] was “highly susceptible”.
